Data taken from the NIST ThermoML archive (doi:10.1016/j.jct.2004.11.005).
Numbers after ± are expanded uncertainties.

Test: activity coefficient (dimensionless); of the first substance listed, at infinite dilution; xn = mol fraction of the nth substance listed
Details: Liquid, x1 = 0

Row | activity coefficient (270.02 K) | activity coefficient (280 K) | activity coefficient (290 K) | activity coefficient (300 K) | activity coefficient (310 K) | activity coefficient (330 K) | activity coefficient (310.01 K) | activity coefficient (320 K) | activity coefficient (269.99 K) | Compound | also measured
1 | 3.16 ± 0.09 | 3.05 ± 0.09 | 2.96 ± 0.09 | 2.86 ± 0.09 | – | 2.49 ± 0.07 | 2.72 ± 0.08 | 2.61 ± 0.08 | – | C=CCC [1-butene] + CCC(O)CC | activity coefficient (259.96 K): 3.27 ± 0.1
2 | – | – | 2.86 ± 0.09 | – | 2.69 ± 0.08 | 2.5 ± 0.08 | – | – | 3.03 ± 0.09 | C=CCC [1-butene] + CCCC(C)O | activity coefficient (249.94 K): 3.04 ± 0.09
3 | – | – | 2.82 ± 0.08 | – | 2.78 ± 0.08 | 2.7 ± 0.08 | – | – | 2.87 ± 0.09 | C=CCC [1-butene] + CCCCCO | activity coefficient (249.96 K): 2.88 ± 0.09
4 | 3.62 ± 0.11 | 3.53 ± 0.11 | 3.45 ± 0.1 | 3.35 ± 0.1 | – | – | 3.22 ± 0.1 | 3.09 ± 0.09 | – | CC(C)C [2-methylpropane] + CCC(O)CC | activity coefficient (259.96 K): 3.66 ± 0.11; activity coefficient (330.01 K): 2.98 ± 0.09
5 | – | – | 3.49 ± 0.1 | – | 3.3 ± 0.1 | 3.1 ± 0.09 | – | – | – | CC(C)C [2-methylpropane] + CCCC(C)O | activity coefficient (250.01 K): 3.66 ± 0.11; activity coefficient (269.96 K): 3.61 ± 0.11
6 | – | – | 3.56 ± 0.11 | – | 3.51 ± 0.11 | 3.4 ± 0.1 | – | – | – | CC(C)C [2-methylpropane] + CCCCCO | activity coefficient (249.97 K): 3.65 ± 0.11; activity coefficient (270.01 K): 3.59 ± 0.11
7 | 3.15 ± 0.09 | 3.04 ± 0.09 | 2.93 ± 0.09 | 2.82 ± 0.08 | – | – | 2.69 ± 0.08 | 2.56 ± 0.08 | – | C=C(C)C [2-methylpropene] + CCC(O)CC | activity coefficient (259.96 K): 3.25 ± 0.1; activity coefficient (330.01 K): 2.43 ± 0.07
8 | – | – | 2.82 ± 0.08 | – | 2.63 ± 0.08 | 2.45 ± 0.07 | – | – | – | C=C(C)C [2-methylpropene] + CCCC(C)O | activity coefficient (249.94 K): 3.1 ± 0.09; activity coefficient (269.98 K): 2.99 ± 0.09
9 | – | – | 2.82 ± 0.08 | – | 2.76 ± 0.08 | 2.63 ± 0.08 | – | – | – | C=C(C)C [2-methylpropene] + CCCCCO | activity coefficient (249.97 K): 2.86 ± 0.09; activity coefficient (270.01 K): 2.84 ± 0.09
10 | 3.06 ± 0.09 | 2.96 ± 0.09 | 2.88 ± 0.09 | 2.77 ± 0.08 | – | – | 2.67 ± 0.08 | 2.54 ± 0.08 | – | C/C=C/C [(E)-2-butene] + CCC(O)CC | activity coefficient (259.96 K): 3.12 ± 0.09; activity coefficient (330.01 K): 2.5 ± 0.08
11 | – | – | 2.81 ± 0.08 | – | 2.65 ± 0.08 | 2.49 ± 0.07 | – | – | 2.91 ± 0.09 | C/C=C/C [(E)-2-butene] + CCCC(C)O | activity coefficient (249.94 K): 2.9 ± 0.09
12 | – | – | 2.76 ± 0.08 | – | 2.76 ± 0.08 | 2.69 ± 0.08 | – | – | 2.8 ± 0.08 | C/C=C/C [(E)-2-butene] + CCCCCO | activity coefficient (249.96 K): 2.8 ± 0.08
13 | 3.4 ± 0.1 | 3.36 ± 0.1 | 3.26 ± 0.1 | 3.15 ± 0.09 | – | – | 3.04 ± 0.09 | 2.92 ± 0.09 | – | CCCC [butane] + CCC(O)CC | activity coefficient (259.98 K): 3.48 ± 0.1; activity coefficient (330.01 K): 2.79 ± 0.08
14 | – | – | 3.24 ± 0.1 | – | 3.11 ± 0.09 | 2.94 ± 0.09 | – | – | – | CCCC [butane] + CCCC(C)O | activity coefficient (249.93 K): 3.4 ± 0.1; activity coefficient (269.96 K): 3.38 ± 0.1
15 | – | – | 3.31 ± 0.1 | – | 3.27 ± 0.1 | 3.19 ± 0.1 | – | – | – | CCCC [butane] + CCCCCO | activity coefficient (249.97 K): 3.43 ± 0.1; activity coefficient (270.01 K): 3.33 ± 0.1
16 | 3.21 ± 0.1 | 3.14 ± 0.09 | 3.09 ± 0.09 | 3.01 ± 0.09 | – | 2.72 ± 0.08 | 2.9 ± 0.09 | 2.81 ± 0.08 | – | CCC [propane] + CCC(O)CC | activity coefficient (259.96 K): 3.27 ± 0.1
17 | – | – | 3.08 ± 0.09 | – | 3.05 ± 0.09 | 3 ± 0.09 | – | – | 3.07 ± 0.09 | CCC [propane] + CCCCCO | activity coefficient (249.96 K): 3.08 ± 0.09
18 | 2.87 ± 0.09 | 2.82 ± 0.08 | 2.74 ± 0.08 | 2.63 ± 0.08 | – | – | 2.53 ± 0.08 | 2.42 ± 0.07 | – | C=CC [propene] + CCC(O)CC | activity coefficient (259.94 K): 2.97 ± 0.09; activity coefficient (330.01 K): 2.32 ± 0.07
19 | – | – | 2.66 ± 0.08 | – | 2.53 ± 0.08 | 2.37 ± 0.07 | – | – | 2.77 ± 0.08 | C=CC [propene] + CCCC(C)O | activity coefficient (249.93 K): 2.79 ± 0.08
20 | – | – | 2.6 ± 0.08 | – | 2.59 ± 0.08 | 2.51 ± 0.08 | – | – | 2.59 ± 0.08 | C=CC [propene] + CCCCCO | activity coefficient (249.96 K): 2.59 ± 0.08

Row | Compound | activity coefficient (270.02 K) | activity coefficient (280 K) | activity coefficient (290 K) | activity coefficient (300 K) | activity coefficient (310 K) | activity coefficient (330 K) | activity coefficient (310.01 K) | activity coefficient (320 K) | activity coefficient (269.99 K) | also measured
21 | C=CC=C [1,3-butadiene] + CCC(O)CC | 3.03 ± 0.09 | 2.92 ± 0.09 | 2.75 ± 0.08 | 2.63 ± 0.08 | – | – | – | – | – | activity coefficient (259.98 K): 3.18 ± 0.1
22 | C=CC=C [1,3-butadiene] + CCCC(C)O | – | – | 2.68 ± 0.08 | – | 2.47 ± 0.07 | 2.27 ± 0.07 | – | – | – | activity coefficient (249.94 K): 3.01 ± 0.09; activity coefficient (269.98 K): 2.89 ± 0.09
23 | C=CC=C [1,3-butadiene] + CCCCCO | – | – | 2.5 ± 0.08 | – | 2.46 ± 0.07 | 2.33 ± 0.07 | – | – | – | activity coefficient (249.97 K): 2.5 ± 0.08; activity coefficient (270.01 K): 2.51 ± 0.08
